Experimental data published in the OligoGym collection.
Where “and” joins values, the source holds several entries; their conditions need not be identical. Equal entries are not always repeated. After the bases stand the sugars from the 5' end (letter, count) and the backbone: PS all phosphorothioate, else s phosphorothioate and o phosphodiester by linkage. Methylation of C is not given here. e = 2'-O-(2-methoxyethyl) (MOE); k = constrained ethyl (cEt); d = 2'-deoxy (DNA)

Biological target: IRF4
Conditions: ASO

| Sequence | target mRNA inhibition (MM.1R, 1 µM) | target mRNA inhibition (SK-MEL-28, 4 µM) | also measured |
| --- | --- | --- | --- |
| TTCATGTAAAGTCTGC (sugars kkddddddddddkeke, PS) | 49% and 28% | – | – |
| GCGGAGGACCTCGCCT (sugars k3 d10 k3, PS) | – | 8% | – |
| TTGTCTGGCTAGCAGA (sugars k3 d10 k3, PS) | – | 45% | – |
| GGGAACCTGAAAAGAG (sugars k3 d10 k3, PS) | – | 21% | – |
| GTCTAGACAGAGAGTC (sugars k3 d10 k3, PS) | – | 2% | – |
| GAAAGAGGCACCCTCC (sugars k3 d10 k3, PS) | – | 19% | – |
| ATCGAGATCAGTCTCA (sugars k3 d10 k3, PS) | – | 76% | – |
| CAGTTGTAAATGAGTC (sugars k3 d10 k3, PS) | – | 89% and 86% | – |
| CAAGACCCCGTATCCC (sugars k3 d10 k3, PS) | – | 44% | – |
| CTCTTTAAAATATCGC (sugars k3 d10 k3, PS) | – | 56% | – |
| CCTCAGTTTGTGAAGC (sugars k3 d9 k3 e1, PS) | 2% | – | – |
| TCAATGATGGCAGTCT (sugars k3 d10 k3, PS) | – | 54% | – |
| GTGACATAAAGGACCC (sugars k3 d10 k3, PS) | 10% | – | – |
| GGTAAGGGCCCCGTGA (sugars k3 d10 k3, PS) | – | 33% | – |
| ACATAACTCAGGCAAG (sugars k3 d10 k3, PS) | – | 1% | – |
| TCAGTTGTAAATGAGT (sugars k3 d10 k3, PS) | – | 72% | – |
| AGCTTACTGTGATTCT (sugars k3 d10 k3, PS) | 13% | – | – |
| CGAATAGGACCCCTAT (sugars k3 d10 k3, PS) | – | 9% | – |
| ACTGTTACCGATGCTT (sugars kddddddddddkekek, PS) | 20% | – | – |

| Sequence | target mRNA inhibition (MM.1R, 1 µM) | target mRNA inhibition (SK-MEL-28, 4 µM) | also measured |
| --- | --- | --- | --- |
| AAGCATTTTATCATCC (sugars k2 d9 e3 k2, PS) | 21% | – | – |
| ATTCATTTTATGGACC (sugars k3 d10 k3, PS) | – | 42% | – |
| GCCAAGGAGGCGGGCC (sugars k3 d10 k3, PS) | -2% | – | – |
| GTCTGAGGGAATCTGC (sugars k3 d10 k3, PS) | – | 49% | – |
| ACACTTTTAGAGAGGA (sugars e1 k2 d9 k2 e2, PS) | 29% | – | – |
| TAAGAGGGCAGTCAAT (sugars k3 d10 k3, PS) | – | 17% | – |
| CTAAAGTCCCATCGAA (sugars k3 d10 k3, PS) | -2% | – | – |
| ACCTAATCTACAACAA (sugars k3 d10 k3, PS) | – | 17% | – |
| ACAAGCAGTGATGTCA (sugars k3 d10 k3, PS) | 14% | 73% | target mRNA inhibition (MM.1R, 0.0625 µM): -4%; target mRNA inhibition (MM.1R, 0.074 µM): 2%; target mRNA inhibition (MM.1R, 0.222 µM): 6%; target mRNA inhibition (MM.1R, 0.25 µM): 5%; target mRNA inhibition (MM.1R, 0.666 µM): 14%; target mRNA inhibition (MM.1R, 2 µM): 46%; target mRNA inhibition (MM.1R, 4 µM): 52% |
| GCTGAAACGGTCAGCA (sugars k3 d10 k3, PS) | 8% | – | – |
| CCTATCACTGCCAAGT (sugars k3 d10 k3, PS) | -3% | – | – |
| AGCCATAGCAAATGGC (sugars k3 d10 k3, PS) | – | 5% | – |
| ACTTTTAGAGAGGAGA (sugars e1 k2 d9 k2 e2, PS) | 28% | – | – |
| AAGCATTTTATCATCC (sugars kkddddddddddkeke, PS) | 20% | – | – |
| GCATTTGGAAAAAGCC (sugars k3 d10 k3, PS) | – | 71% | – |
| GATGTATACCAACGAC (sugars k3 d10 k3, PS) | – | 68% | – |
| GAAGTTTACACTGGAT (sugars k3 d9 k3 e1, PS) | 45% | – | – |
| TCAATGGGAATCACAG (sugars k3 d10 k3, PS) | – | 40% | – |
| ATGTTAGCCAATTCCT (sugars kdddddddddkekeke, PS) | 0% and 5% | – | – |
